Measurements reported in a melting point compilation (Tetko et al.).
Starred links: 1 amine or outer side, 2 acyl side, 3 side chain; linkers in the order of their positions; H or OH if unused. Positions of bridges follow the written chain, without caps; N, C: chain ends. Non-standard residues stand in square brackets, D forms with d. Residues, ends and D or L forms follow the SMILES beside them. *: point of attachment. X6 = CCC(C)C(N[*:1])C(O)CC(=O)OC(C(=O)C(C)C(=O)[*:2])C(C)C; Trt = c1ccc(C(c2ccccc2)(c2ccccc2)*)cc1; NMeY = CN[CH](Cc1ccc(O)cc1)C(=O)O; NMeL = CN[CH](CC(C)C)C(=O)O; Boc = CC(C)(C)OC(=O)*; Bn = c1ccc(C*)cc1; NHNH2 = NN*

Row | Structure (SMILES) | melting point
1 | CC(=O)NC1C(OCc2ccccc2)OC(COCc2ccccc2)C(OC2OC(COCc3ccccc3)C(OCc3ccccc3)C(OCc3ccccc3)C2NC(C)=O)C1O (centres undefined) | 220 to 222 °C
2 | COc1cc(OC)c(/C=C/C(c2ccc(OC)c(NC(=O)CO)c2)S(=O)(=O)C(/C=C/c2c(OC)cc(OC)cc2OC)c2ccc(OC)c(NC(=O)CO)c2)c(OC)c1 (centres undefined) | 174 to 176 °C
3 | CC(NC(=O)C(CC(C(=O)O)C(C)(C)C)NC(=O)C(CC(C(=O)O)C(C)(C)C)NC(=O)C(NC(=O)OCc1ccccc1)C(C)C)C(=O)NC(CC(C(=O)O)C(C)(C)C)C(=O)NC(CC(N)=O)C(=O)OC(C)(C)C (centres undefined) | 217 to 219 °C
4 | CCCCC(CC)CN1C(=O)C(=Cc2cc3c(s2)c2sc(-c4ccc(N(c5ccccc5)c5ccccc5)cc4)cc2n3CC(CC)CCCC)C(C)=C(C#N)C1=O (centres undefined) | 137 to 140 °C
5 | [C-]#[N+]CS(=O)c1ccccn1 (centres undefined) | 91 to 93 °C
6 | CC(C)[C@H](NC(=O)N1CCN(Cc2ccccc2)CC1)C(=O)N[C@@H](Cc1ccccc1)[C@@H](O)[C@H](O)[C@H](Cc1ccccc1)NC(=O)[C@@H](NC(=O)N1CCN(Cc2ccccc2)CC1)C(C)C | 178 to 179 °C
7 | CCC(C)C1NC(=O)C(NC(=O)C(CC(C)C)N(C)C(C)=O)C(C)OC(=O)C(Cc2ccc(OC)cc2)N(C)C(=O)C2CCCN2C(=O)C(CC(C)C)NC(=O)C(C)C(=O)C(C(C)C)OC(=O)CC1O (centres undefined) (Ac-[NMeL]T[X6]LP[NMeY](Me); ester 2-C; configuration not given here) | 124 to 126 °C
8 | O=C1CCc2cc(O)c(I)cc21 | 114 to 115 °C
9 | CCCCCCCCCCOc1cc2c3cc(OCCCCCCCCCC)c(OCCCCCCCCCC)cc3c3c(OC)ccc(OC)c3c2cc1OCCCCCCCCCC | 69 to 70 °C
10 | CCCCCCCCCCCCCCCCCCOC(=O)C1(C(=O)OCCCCCCCCCCCCCCCCCC)COC2(CC(C)(C)NC(C)(C)C2)OC1 | 54 to 56 °C
11 | CC(C)OCCOc1ccc(CCCOc2nn(C)cc2CC(=O)O)c(Oc2ncc(C(F)(F)F)cc2Cl)c1 | 104 °C
12 | COc1ccc([C@@H]2Sc3ccccc3N(CCN(C)C)C(=O)[C@@H]2OC(=O)CCC(=O)O[C@H]2C(=O)N(CCN(C)C)c3ccccc3S[C@H]2c2ccc(OC)cc2)cc1 (relative stereo) | 112 to 115 °C
13 | CO/N=C(\C(=O)N[C@@H]1C(=O)N2C(C(=O)OC(C)(C)C)=C(CI)SC[C@H]12)c1nc(C(c2ccccc2)(c2ccccc2)c2ccccc2)sc1N | 150 °C
14 | FC(F)(F)C(F)(F)C(F)(F)C(F)(F)C(F)(F)C(F)(F)C(F)(F)C(F)(F)C(F)(F)C(F)(F)CC[Si](Br)(CCC(F)(F)C(F)(F)C(F)(F)C(F)(F)C(F)(F)C(F)(F)C(F)(F)C(F)(F)C(F)(F)C(F)(F)F)CCC(F)(F)C(F)(F)C(F)(F)C(F)(F)C(F)(F)C(F)(F)C(F)(F)C(F)(F)C(F)(F)C(F)(F)F | 80 to 81 °C
15 | Cc1cc(-c2nc3c(S(C)=O)cc(Cl)nn3c2-c2ccnc(N)c2)ccc1F (centres undefined) | 216 to 217 °C
16 | O=C(O)c1ccccc1Oc1ccc(C(F)(F)F)cc1N(S(=O)(=O)c1cc(C(F)(F)F)cc(C(F)(F)F)c1)S(=O)(=O)c1cc(C(F)(F)F)cc(C(F)(F)F)c1 | 204 to 205 °C
17 | CCCNC(Cc1cc(I)c(Oc2cc(I)c(O)c(I)c2)c(I)c1)C(=O)O (centres undefined) | 212 to 213 °C
18 | CCC(C=CC(C)C1CCC2C3CC=C4CC(OC(=O)N(CC(COC(c5ccccc5)(c5ccccc5)c5ccccc5)C(=O)NC)C(C)C)CCC4(C)C3CCC12C)C(C)C (centres undefined) | 92 to 93 °C
19 | CC(=O)OCC(CNC(=O)c1c(I)c(C(=O)NCC(COC(C)=O)OC(C)=O)c(I)c(N2CCCC(Br)C2=O)c1I)OC(C)=O (centres undefined) | 232 to 235 °C
20 | CCC(O)C=CC=CC=CC(=O)OCC1OC(OC2C(CO)OC3(OCc4cc(O)cc(O)c43)C(O)C2OC(=O)C=CC=CCC(O)C(C)=CC=CCCC(C)CC)C(O)C(O)C1O (centres undefined) | 193 to 197 °C

Row | Structure (SMILES) | melting point
21 | CC1(C)CC(O)(C#N)CC(C)(C)N1 | 129 to 132 °C
22 | CCCCC1(CC)CS(=O)(=O)c2ccc(N(C)C)cc2C(c2cccc(NC(=O)COCCOCC(=O)NCc3ccc(N4C(=O)C(CCC(O)c5ccc(F)cc5)C4c4ccc(OC)cc4)cc3)c2)C1O (centres undefined) | 116 to 125 °C
23 | Ic1cc(I)c(OCCOc2c(I)cc(I)cc2I)c(I)c1 | 288 to 289 °C
24 | CC(C)CC(NC(=O)OC(C)(C)C)C(=O)NCC(=O)NCC(=O)NC(C)C(=O)NCC(=O)NC(CSC(c1ccccc1)(c1ccccc1)c1ccccc1)C(=O)NC(CCCCNC(=O)OC(C)(C)C)C(=O)NC(CC(N)=O)C(=O)NC(Cc1ccccc1)C(=O)NC(Cc1ccccc1)C(=O)NN (centres undefined) (Boc-LGGAGC(Trt)K(Boc)NFF-NHNH2; configuration not given here) | 239 to 242 °C
25 | O=C(Nc1ccc(N2CCNCC2)cc1)c1ccccc1-c1ccccc1 | 176 °C
26 | CCCCCCCCCCCCCCCC(=O)C(O)C(O)(C(=O)c1cccc(NC(=O)C(CS)Cc2ccccc2)c1)C(O)C(=O)CCCCCCCCCCCCCCC (centres undefined) | 66 to 68 °C
27 | C=CCOC1OC(CO)C(O)C(OC(=O)CC(CCCCCCCCCCC)OCc2ccccc2)C1NC(=O)CC(CCCCCCCCCCC)OCc1ccccc1 (centres undefined) | 80 to 82 °C
28 | O=C(O)CCC(CC=Cc1ccc(Cl)cc1)(C(=O)C=Cc1ccc(Cl)cc1)c1ccccc1 (centres undefined) | 178 to 180 °C
29 | CCCCCCCCCCCCCCCCCCOc1ccc(OCCCOc2ccc(OCc3ccccc3)cc2)c(C(=O)N(CC(=O)OCC)CC(=O)OCC)c1 | 54 to 55 °C
30 | CC(COC(=O)CCc1cc(C(C)(C)C)c(O)c(C(C)(C)C)c1)(COC(=O)CCc1cc(C(C)(C)C)c(O)c(C(C)(C)C)c1)COC(=O)CCc1cc(C(C)(C)C)c(O)c(C(C)(C)C)c1 | 55 to 78 °C
31 | CCSC(=O)N(CC(C)C)CC(C)C | 6 °C
32 | COC(C)c1nc2c(N)nc3ccccc3c2n1CCOCCNC(=O)NCCCCCCCCNC(=O)NCCOCCn1c(C(C)OC)nc2c(N)nc3ccccc3c21 (centres undefined) | 172 to 177 °C
33 | CN=S(=O)(c1nc(-c2ccc(F)cc2)cs1)C(C)c1ccc(C(F)(F)F)nc1 (centres undefined) | 89 to 94 °C
34 | COc1cc(OC)c(/C=C/C(c2ccc(OC)c(NC(=O)C(C)(C)O)c2)S(=O)(=O)C(/C=C/c2c(OC)cc(OC)cc2OC)c2ccc(OC)c(NC(=O)C(C)(C)O)c2)c(OC)c1 (centres undefined) | 198 to 199 °C
35 | CCCCCCCCCCCCCCCCCC[Si](C)(C)O[C@@H]1c2cc(Br)ccc2-c2ccc(Br)cc2[C@H]1O[Si](C)(C)CCCCCCCCCCCCCCCCCC (relative stereo) | 51.5 to 52.5 °C
36 | CC(C)[C@H](NC(=O)N(C)Cc1nccs1)C(=O)N[C@@H](Cc1ccccc1)[C@@H](O)[C@H](O)[C@H](Cc1ccccc1)NC(=O)[C@@H](NC(=O)N(C)Cc1nccs1)C(C)C | 176 to 178 °C
37 | CCCCCCCCCCCCCCCCCCN(Cc1c(C)cc(C(C)(C)C)c(O)c1C)S(=O)(=O)c1ccc(-c2ccc(S(=O)(=O)N(CCCCCCCCCCCCCCCCCC)Cc3c(C)cc(C(C)(C)C)c(O)c3C)cc2)cc1 | 208 to 210 °C
38 | COc1ccc(-c2cc(C(=O)NCCCCCCc3ccccc3)cc(-c3cccc(C(F)(F)F)c3)c2OCC(=O)O)cc1 | 153 to 159 °C
39 | CC(=O)OCC(CN(CC(COC(C)=O)OC(C)=O)C(=O)c1c(I)c(NC(=O)C2CCCO2)c(I)c(C(N)=O)c1I)OC(C)=O (centres undefined) | 101 to 104 °C
40 | CCCc1nn(C)c(C(=O)O)c1[N+](=O)[O-] | 122 to 126 °C

Row | Structure (SMILES) | melting point
41 | COC(=O)COC1C(NC(C)=O)C(OCc2ccccc2)OC(COCc2ccccc2)C1OC1(N)OC(COCc2ccccc2)C(OCc2ccccc2)C(OCc2ccccc2)C1C(=O)OCC(Cl)(Cl)Cl (centres undefined) | 176 to 178 °C
42 | IC(I)=C(I)CCOCCC(I)=C(I)I | 43.5 to 44.5 °C
43 | CC=C(C)C(=O)NC(c1ccccc1)C(O)C(=O)OC1CC2(O)C(OC(=O)c3ccccc3)C3C4(OC(C)=O)COC4CC(O)C3(C)C(=O)C(OC(C)=O)C(=C1C)C2(C)C (centres undefined) | 184 to 186 °C
44 | CCCCCc1nc(C)c(C(=O)OCC)n1Cc1ccc2oc(-c3ccccc3-c3nnn(C(c4ccccc4)(c4ccccc4)c4ccccc4)n3)c(Br)c2c1 | 89 to 90 °C
45 | [C-]#[N+]Cc1c(OC)cc(OC)cc1OC | 107 to 109 °C
46 | CC(C)(C)c1cc(SC(CCCC(Sc2cc(C(C)(C)C)c(O)c(C(C)(C)C)c2)Sc2cc(C(C)(C)C)c(O)c(C(C)(C)C)c2)Sc2cc(C(C)(C)C)c(O)c(C(C)(C)C)c2)cc(C(C)(C)C)c1O | 148 to 153 °C
47 | O=C(O)C1=Cc2cc(Br)ccc2NC1C(F)(F)F (centres undefined) | 185 to 186 °C
48 | CCCCCCCCCCCCSc1cc(SCCCCCCCCCCCC)c2ccc3c(SCCCCCCCCCCCC)cc(SCCCCCCCCCCCC)c4ccc1c2c43 | 110 °C
49 | C=Cc1cccc2c(=O)c(C(=O)CCC)c[nH]c12 | 206 to 208 °C
50 | O=S(=O)(C(/C=C/c1c(F)c(F)c(F)c(F)c1F)c1c(F)c(F)c(F)c(F)c1F)C(/C=C/c1c(F)c(F)c(F)c(F)c1F)c1c(F)c(F)c(F)c(F)c1F (centres undefined) | 137 to 139 °C
51 | CC(=O)OCC(CNC(=O)c1c(I)c(C(=O)NCC(COC(C)=O)OC(C)=O)c(I)c(N2CCCCC2=O)c1I)OC(C)=O (centres undefined) | 130 to 134 °C
52 | CCCC(=O)c1c[nH]c2ccc(COC(=O)c3ccccc3)cc2c1=O | 220 to 223 °C
53 | FC(F)OC(Cl)C(F)(F)F (centres undefined) | -108 °C
54 | C=C(C)[C@@H]1CC[C@]2(C(=O)N[C@@H]3C[C@H](C(=O)OCc4ccccc4)C3(C)C)CC[C@]3(C)[C@H](CC[C@@H]4[C@@]5(C)CC[C@H](OC(=O)CC(C)(C)C(=O)O)C(C)(C)[C@@H]5CC[C@]43C)[C@@H]12 | 64.7 to 100 °C
55 | CC(C)C(NC(=O)C(Cc1ccc(OCc2ccccc2)cc1)NC(=O)C(COCc1ccccc1)NC(=O)C(Cc1c[nH]c2ccccc12)NC(=O)OC(C)(C)C)C(=O)O (centres undefined) (Boc-WS(Bn)Y(Bn)V-OH; configuration not given here) | 98 to 100 °C
56 | O=C(Cc1cc(I)c(Oc2cc(I)c(OCC3CO3)c(I)c2)c(I)c1)OCC1CO1 (centres undefined) | 116 °C
57 | CCCCCCCCCCCCCCCC(=O)OCC1OC(n2cc(F)c(=O)n(C(=O)c3cccc(OC)c3OC)c2=O)CC1OC(=O)CCCCCCCCCCCCCCC (centres undefined) | 77 to 78 °C
58 | CCCCCCCCCCCCCCCC(=O)C(O)[C@](O)(C(=O)CCCCCCCCCCCCCCC)[C@@H](O)[C@H](O)[C@@](O)(C(=O)CCCCCCCCCCCCCCC)C(O)C(=O)CCCCCCCCCCCCCCC (some centres undefined) | 72 to 74 °C
59 | O=C(OCC(OC(=O)C1CCCCC1)C(OC(=O)C1CCCCC1)C(OC(=O)C1CCCCC1)C(COC(=O)C1CCCCC1)OC(=O)C1CCCCC1)C1CCCCC1 (centres undefined) | 135 to 140 °C
